Biological target: T1, Litchi sinensis LPAAT (LsLPAAT, pEW108), mutant of SEQ ID No 2 in the last C-terminal amino acids, SEQ ID No 1 (Litchi chinensis, UniProt A0A346D9Z1)
T1 construct: araBAD promoter, E. coli JC201 microsomes
Experiment: LPAAT assay, kinetic parameters with C18:1-CoA, E. coli JC201 microsomes
Assay type: biochemical
Conditions: C18:1-CoA 0-50 μM, 10 min, 30° C., pH7.5, N = 4
Description: FIG. 1: Kinetics of phosphatidic acid synthesis using ^14C-C18:1-CoA on ^3H-LPA as substrates and Brassica napus (SEQ ID No 5) and Litchi microsomal (SEQ ID NO 1) LPAATs as enzymes. Duplicate measurements for one experiment are shown.
The inventors have identified one putative Lysophosphatidic Acid-Acyl Transferase from Lychee (SEQ ID No 2). They also have obtained a mutated protein derived from this protein, which is depicted as SEQ ID No 1.
Plasmids pEW108 and 117 comprising genes coding for SEQ ID No 1 and SEQ ID No 2 respectively under the control of the araBAD promoter (Guzman, L-M. et al. (1995) J Bacteriology 177: 4121-4130) were prepared and used to transform and complement an E. coli strain. The araBAD promoter is induced by arabinose, repressed by glucose and is used in the art to express polynucleotides in a controlled manner.
The following experiments were performed with the Escherichia coli JC201 mutant strain, which is temperature conditional in endogenous LPAAT activity and able to grow at 30° C. but not at 44° C. (genotype plsC, described in Coleman, 1990 J. Biol. Chem., 265 (28), 17215-21.). These bacteria were kept at −80° C. as 1 ml glycerol stocks. […] Optical density was measured at 600 nm and each flask was then cultivated for 6 hours at 30 and 44° C. respectively in order to check by optical density measurement that bacterial growth occurs at 30° C. but not at 44° C. […]

T1 sequence (A0A346D9Z1 entry or part of it, change not shown): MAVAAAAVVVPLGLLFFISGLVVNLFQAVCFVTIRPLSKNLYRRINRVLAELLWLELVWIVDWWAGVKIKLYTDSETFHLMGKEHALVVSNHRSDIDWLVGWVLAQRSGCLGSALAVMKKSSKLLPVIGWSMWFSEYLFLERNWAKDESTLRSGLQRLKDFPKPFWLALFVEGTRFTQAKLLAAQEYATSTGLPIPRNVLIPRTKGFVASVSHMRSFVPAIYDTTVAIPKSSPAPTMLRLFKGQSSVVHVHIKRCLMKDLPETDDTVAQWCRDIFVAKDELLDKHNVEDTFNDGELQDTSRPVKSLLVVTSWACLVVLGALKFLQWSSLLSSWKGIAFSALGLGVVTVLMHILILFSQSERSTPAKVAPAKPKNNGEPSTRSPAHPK

CCCCCCCC/C=C\CCCCCCCC(=O)SCCNC(=O)CCNC(=O)[C@H](O)C(C)(C)COP(=O)(O)OP(=O)(O)OC[C@H]1O[C@@H](n2cnc3c(N)ncnc32)[C@H](O)[C@@H]1OP(=O)(O)O [C18:1-CoA, Oleoyl-CoA]
Km: 7.3 ± 4.1 µM
Vmax (apparent Vmax, per mg total protein): 1557 ± 616 pmol · mg prot^−1 · min^−1

Reference: patent US20090271892A1, “LYSOPHOSPHATIDIC ACID ACYLTRANSFERASE GENES AND USES THEREOF” (priority 2006, published 2009)
